Consider nine compounds from ChEMBL document CHEMBL1697781, “Assessment of the health effects of chemicals in humans: II. Construction of an adverse effects database for QSAR modeling” (Curr Drug Discov Technol, 2004).

Each structure is given as a SMILES string.

Common to all, as to details: human
Data set [1] deals with Hepatotoxicity. Kind of data set: FDA HLAED, serum glutamic pyruvic transaminase (SGPT) increase.
The test system of data set [2] is Hepatotoxicity. The data set is described as follows: FDA HLAED, lactate dehydrogenase (LDH) increase.
For data set [3], the system named is Hepatotoxicity. Kind of data set: FDA HLAED, gamma-glutamyl transferase (GGT) increase.
Data set [4] relates to Hepatotoxicity. The data set is described as follows: FDA HLAED, serum glutamic oxaloacetic transaminase (SGOT) increase.
The subject of data set [5] is Hepatotoxicity. The data set is described as follows: FDA HLAED, alkaline phosphatase increase.
Data set [6] deals with Hepatotoxicity. Kind of data set: FDA HLAED, liver enzyme composite activity.
For GGT Increase - Index Value in this document: reference of the scale not given here.
For LDH Increase - Index Value in this document: reference of the scale not given here.

For `Cc1cc2c(s1)Nc1ccccc1N=C2N1CCN(C)CC1` [OLANZAPINE], in the data set with Hepatotoxicity [1], the “SGPT Increase - Activity Score” value was “Active”, the “SGPT Increase - Index Value” stood at 15.5 and the “SGPT Increase - Number of Reports” value was “>= 4”. In addition, in the data set with Hepatotoxicity [2], the “LDH Increase - Activity Score” value is given as “Inactive”, the “LDH Increase - Index Value” is reported as 2.1 and the “LDH Increase - Number of Reports” value is “>= 4”. In the data set with Hepatotoxicity [3], the “GGT Increase - Activity Score” value is given as “Active”, the “GGT Increase - Index Value” was found to be 9.1 and the “GGT Increase - Number of Reports” value was “>= 4”. Moreover, in the data set with Hepatotoxicity [4], the “SGOT Increase - Activity Score” value is “Active”, the “SGOT Increase - Index Value” is 16.5 and the “SGOT Increase - Number of Reports” value was “>= 4”. Also, in the data set with Hepatotoxicity [5], the “Alkaline Phosphatase Increase - Activity Score” value was “Marginally Active”, the “Alkaline Phosphatase Increase - Index Value” is reported as 3.7 and the “Alkaline Phosphatase Increase - Number of Reports” value is reported as “>= 4”. Moreover, in the data set on Hepatotoxicity [6], the “Composite Activity - Active” value was found to be 3, the “Composite Activity - Marginal” value is on record as 1 and the “Composite Activity - Score” value was “Active”.
For the compound `CN(C)CC/C=C1/c2ccccc2COc2ccc(CC(=O)O)cc21` [OLOPATADINE], in the data set on Hepatotoxicity [1], the “SGPT Increase - Activity Score” value is “Inactive”, the “SGPT Increase - Index Value” was found to be 0 and the “SGPT Increase - Number of Reports” value was less than 4. Further, in the data set on Hepatotoxicity [2], the “LDH Increase - Activity Score” value is reported as “Inactive”, the “LDH Increase - Index Value” was determined as 0 and the “LDH Increase - Number of Reports” value is listed as less than 4. For the same compound, in the data set with Hepatotoxicity [3], the “GGT Increase - Activity Score” value is on record as “Inactive”, the “GGT Increase - Index Value” worked out at 0 and the “GGT Increase - Number of Reports” value was less than 4. Moreover, in the data set with Hepatotoxicity [4], the “SGOT Increase - Activity Score” value was “Inactive”, the “SGOT Increase - Index Value” turned out to be 0 and the “SGOT Increase - Number of Reports” value is reported as less than 4. For the same compound, in the data set with Hepatotoxicity [5], the “Alkaline Phosphatase Increase - Activity Score” value was “Inactive”, the “Alkaline Phosphatase Increase - Index Value” came out at 0 and the “Alkaline Phosphatase Increase - Number of Reports” value is on record as less than 4. Besides, in the data set on Hepatotoxicity [6], the “Composite Activity - Active” value was determined as 0, the “Composite Activity - Marginal” value is 0 and the “Composite Activity - Score” value is “Inactive”.
As for `O=C(O)c1cc(/N=N/c2ccc(O)c(C(=O)O)c2)ccc1O` [OLSALAZINE], in the data set on Hepatotoxicity [1], the “SGPT Increase - Activity Score” value is given as “Inactive”, the “SGPT Increase - Index Value” was 1.5 and the “SGPT Increase - Number of Reports” value is less than 4. Also, in the data set on Hepatotoxicity [2], the “LDH Increase - Activity Score” value is reported as “Inactive”, the “LDH Increase - Index Value” was found to be 0.7 and the “LDH Increase - Number of Reports” value is reported as less than 4. For the same compound, in the data set on Hepatotoxicity [3], the “GGT Increase - Activity Score” value is recorded as “Inactive”, the “GGT Increase - Index Value” is listed as 0 and the “GGT Increase - Number of Reports” value is less than 4. Moreover, in the data set on Hepatotoxicity [4], the “SGOT Increase - Activity Score” value is “Inactive”, the “SGOT Increase - Index Value” was found to be 2.2 and the “SGOT Increase - Number of Reports” value was less than 4. Besides, in the data set with Hepatotoxicity [5], the “Alkaline Phosphatase Increase - Activity Score” value is listed as “Inactive”, the “Alkaline Phosphatase Increase - Index Value” is recorded as 0.7 and the “Alkaline Phosphatase Increase - Number of Reports” value is less than 4. In addition, in the data set on Hepatotoxicity [6], the “Composite Activity - Active” value worked out at 0, the “Composite Activity - Marginal” value worked out at 0 and the “Composite Activity - Score” value was “Inactive”.
Turning to `COc1ccc2[nH]c([S+]([O-])Cc3ncc(C)c(OC)c3C)nc2c1` (configuration not stated) [OMEPRAZOLE], in the data set with Hepatotoxicity [1], the “SGPT Increase - Activity Score” value is recorded as “Inactive”, the “SGPT Increase - Index Value” is given as 0.9 and the “SGPT Increase - Number of Reports” value is on record as “>= 4”. Also, in the data set on Hepatotoxicity [2], the “LDH Increase - Activity Score” value is “Inactive”, the “LDH Increase - Index Value” is recorded as 0.5 and the “LDH Increase - Number of Reports” value is recorded as “>= 4”. In the data set with Hepatotoxicity [3], the “GGT Increase - Activity Score” value was “Inactive”, the “GGT Increase - Index Value” was 0.8 and the “GGT Increase - Number of Reports” value is on record as “>= 4”. Moreover, in the data set with Hepatotoxicity [4], the “SGOT Increase - Activity Score” value is “Inactive”, the “SGOT Increase - Index Value” worked out at 1.2 and the “SGOT Increase - Number of Reports” value is reported as “>= 4”. For the same compound, in the data set on Hepatotoxicity [5], the “Alkaline Phosphatase Increase - Activity Score” value is reported as “Inactive”, the “Alkaline Phosphatase Increase - Index Value” turned out to be 1.8 and the “Alkaline Phosphatase Increase - Number of Reports” value was “>= 4”. Further, in the data set on Hepatotoxicity [6], the “Composite Activity - Active” value was determined as 0, the “Composite Activity - Marginal” value stood at 0 and the “Composite Activity - Score” value was “Inactive”.
`Cc1nccn1CC1CCc2c(c3ccccc3n2C)C1=O` (configuration not stated) [ONDANSETRON]: in the data set on Hepatotoxicity [1], the “SGPT Increase - Activity Score” value was “Inactive”, the “SGPT Increase - Index Value” worked out at 1.3 and the “SGPT Increase - Number of Reports” value is recorded as “>= 4”. In the data set on Hepatotoxicity [2], the “LDH Increase - Activity Score” value is given as “Inactive”, the “LDH Increase - Index Value” is 0.9 and the “LDH Increase - Number of Reports” value was “>= 4”. In the data set on Hepatotoxicity [3], the “GGT Increase - Activity Score” value is “Inactive”, the “GGT Increase - Index Value” is on record as 0 and the “GGT Increase - Number of Reports” value was less than 4. For the same compound, in the data set on Hepatotoxicity [4], the “SGOT Increase - Activity Score” value is given as “Inactive”, the “SGOT Increase - Index Value” turned out to be 1.1 and the “SGOT Increase - Number of Reports” value is “>= 4”. In addition, in the data set on Hepatotoxicity [5], the “Alkaline Phosphatase Increase - Activity Score” value is recorded as “Inactive”, the “Alkaline Phosphatase Increase - Index Value” is reported as 0.5 and the “Alkaline Phosphatase Increase - Number of Reports” value is “>= 4”. Besides, in the data set with Hepatotoxicity [6], the “Composite Activity - Active” value amounted to 0, the “Composite Activity - Marginal” value came out at 0 and the “Composite Activity - Score” value is reported as “Inactive”.
Turning to `O=C(O)CCc1nc(-c2ccccc2)c(-c2ccccc2)o1` [OXAPROZIN], in the data set on Hepatotoxicity [1], the “SGPT Increase - Activity Score” value is listed as “Inactive”, the “SGPT Increase - Index Value” is 0.8 and the “SGPT Increase - Number of Reports” value is “>= 4”. Moreover, in the data set with Hepatotoxicity [2], the “LDH Increase - Activity Score” value is on record as “Inactive”, the “LDH Increase - Index Value” was found to be 0.4 and the “LDH Increase - Number of Reports” value is given as “>= 4”. In the data set with Hepatotoxicity [3], the “GGT Increase - Activity Score” value is listed as “Inactive”, the “GGT Increase - Index Value” worked out at 0.4 and the “GGT Increase - Number of Reports” value is given as less than 4. Besides, in the data set on Hepatotoxicity [4], the “SGOT Increase - Activity Score” value is reported as “Inactive”, the “SGOT Increase - Index Value” was 0.9 and the “SGOT Increase - Number of Reports” value is reported as “>= 4”. In the data set on Hepatotoxicity [5], the “Alkaline Phosphatase Increase - Activity Score” value is listed as “Inactive”, the “Alkaline Phosphatase Increase - Index Value” is listed as 0.2 and the “Alkaline Phosphatase Increase - Number of Reports” value is recorded as less than 4. In addition, in the data set with Hepatotoxicity [6], the “Composite Activity - Active” value was 0, the “Composite Activity - Marginal” value is reported as 0 and the “Composite Activity - Score” value was “Inactive”.
For `Clc1ccc(CO/N=C(\Cn2ccnc2)c2ccc(Cl)cc2Cl)c(Cl)c1` [OXICONAZOLE], in the data set on Hepatotoxicity [1], the “SGPT Increase - Activity Score” value was “Inactive”, the “SGPT Increase - Index Value” came out at 0 and the “SGPT Increase - Number of Reports” value is reported as less than 4. For the same compound, in the data set with Hepatotoxicity [2], the “LDH Increase - Activity Score” value is on record as “Inactive”, the “LDH Increase - Index Value” was 0 and the “LDH Increase - Number of Reports” value is less than 4. Further, in the data set with Hepatotoxicity [3], the “GGT Increase - Activity Score” value was “Inactive”, the “GGT Increase - Index Value” is on record as 0 and the “GGT Increase - Number of Reports” value is less than 4. In the data set on Hepatotoxicity [4], the “SGOT Increase - Activity Score” value was “Inactive”, the “SGOT Increase - Index Value” was found to be 0 and the “SGOT Increase - Number of Reports” value is less than 4. Besides, in the data set with Hepatotoxicity [5], the “Alkaline Phosphatase Increase - Activity Score” value is listed as “Inactive”, the “Alkaline Phosphatase Increase - Index Value” turned out to be 0 and the “Alkaline Phosphatase Increase - Number of Reports” value was less than 4. In addition, in the data set on Hepatotoxicity [6] (Liver), the “Composite Activity - Active” value is listed as 0, the “Composite Activity - Marginal” value is listed as 0 and the “Composite Activity - Score” value is recorded as “Inactive”.
Consider `C[N+](C)(C)CCO.Cn1c(=O)c2[n-]cnc2n(C)c1=O` [OXTRIPHYLLINE], for which, in the data set with Hepatotoxicity [1], the “SGPT Increase - Activity Score” value is listed as “Inactive”, the “SGPT Increase - Index Value” is reported as 0 and the “SGPT Increase - Number of Reports” value is recorded as less than 4. For the same compound, in the data set with Hepatotoxicity [2], the “LDH Increase - Activity Score” value is “Inactive”, the “LDH Increase - Index Value” came out at 0 and the “LDH Increase - Number of Reports” value is less than 4. Further, in the data set with Hepatotoxicity [3], the “GGT Increase - Activity Score” value is given as “Inactive”, the “GGT Increase - Index Value” is listed as 0 and the “GGT Increase - Number of Reports” value is reported as less than 4. Also, in the data set with Hepatotoxicity [4], the “SGOT Increase - Activity Score” value is recorded as “Inactive”, the “SGOT Increase - Index Value” stood at 0 and the “SGOT Increase - Number of Reports” value is on record as less than 4. Also, in the data set with Hepatotoxicity [5], the “Alkaline Phosphatase Increase - Activity Score” value is listed as “Inactive”, the “Alkaline Phosphatase Increase - Index Value” was found to be 0 and the “Alkaline Phosphatase Increase - Number of Reports” value is listed as less than 4. For the same compound, in the data set with Hepatotoxicity [6], the “Composite Activity - Active” value came out at 0, the “Composite Activity - Marginal” value is listed as 0 and the “Composite Activity - Score” value is “Inactive”.
Turning to `CC(=O)O[C@H]1C(=O)[C@@]2(C)[C@H]([C@H](OC(=O)c3ccccc3)[C@]3(O)C[C@H](OC(=O)[C@H](O)[C@@H](NC(=O)c4ccccc4)c4ccccc4)C(C)=C1C3(C)C)[C@]1(OC(C)=O)CO[C@@H]1C[C@@H]2O` [PACLITAXEL], in the data set with Hepatotoxicity [1], the “SGPT Increase - Activity Score” value was “Inactive”, the “SGPT Increase - Index Value” was 0.8 and the “SGPT Increase - Number of Reports” value was less than 4. In addition, in the data set with Hepatotoxicity [2], the “LDH Increase - Activity Score” value is given as “Inactive”, the “LDH Increase - Index Value” stood at 2.2 and the “LDH Increase - Number of Reports” value is on record as “>= 4”. Besides, in the data set with Hepatotoxicity [3], the “GGT Increase - Activity Score” value is “Inactive”, the “GGT Increase - Index Value” is listed as 1.2 and the “GGT Increase - Number of Reports” value is given as “>= 4”. In the data set on Hepatotoxicity [4], the “SGOT Increase - Activity Score” value was “Inactive”, the “SGOT Increase - Index Value” is recorded as 2.5 and the “SGOT Increase - Number of Reports” value is given as “>= 4”. Besides, in the data set on Hepatotoxicity [5], the “Alkaline Phosphatase Increase - Activity Score” value is reported as “Marginally Active”, the “Alkaline Phosphatase Increase - Index Value” is 3.7 and the “Alkaline Phosphatase Increase - Number of Reports” value is on record as “>= 4”. Further, in the data set with Hepatotoxicity [6] (Liver), the “Composite Activity - Active” value came out at 0, the “Composite Activity - Marginal” value worked out at 1 and the “Composite Activity - Score” value is on record as “Inactive”.
